Results: ChEMBL document CHEMBL1142734, “Biological properties of D- and L-1-deoxyazasugars” (J Med Chem, 2005)

Key:
[1] = target: T1, Beta-mannosidase (Rattus norvegicus) (UniProt Q4FZV0); experiment: Percent inhibition of beta-mannosidase of rat epididymis at 1000 uM
T1 sequence (whole entry): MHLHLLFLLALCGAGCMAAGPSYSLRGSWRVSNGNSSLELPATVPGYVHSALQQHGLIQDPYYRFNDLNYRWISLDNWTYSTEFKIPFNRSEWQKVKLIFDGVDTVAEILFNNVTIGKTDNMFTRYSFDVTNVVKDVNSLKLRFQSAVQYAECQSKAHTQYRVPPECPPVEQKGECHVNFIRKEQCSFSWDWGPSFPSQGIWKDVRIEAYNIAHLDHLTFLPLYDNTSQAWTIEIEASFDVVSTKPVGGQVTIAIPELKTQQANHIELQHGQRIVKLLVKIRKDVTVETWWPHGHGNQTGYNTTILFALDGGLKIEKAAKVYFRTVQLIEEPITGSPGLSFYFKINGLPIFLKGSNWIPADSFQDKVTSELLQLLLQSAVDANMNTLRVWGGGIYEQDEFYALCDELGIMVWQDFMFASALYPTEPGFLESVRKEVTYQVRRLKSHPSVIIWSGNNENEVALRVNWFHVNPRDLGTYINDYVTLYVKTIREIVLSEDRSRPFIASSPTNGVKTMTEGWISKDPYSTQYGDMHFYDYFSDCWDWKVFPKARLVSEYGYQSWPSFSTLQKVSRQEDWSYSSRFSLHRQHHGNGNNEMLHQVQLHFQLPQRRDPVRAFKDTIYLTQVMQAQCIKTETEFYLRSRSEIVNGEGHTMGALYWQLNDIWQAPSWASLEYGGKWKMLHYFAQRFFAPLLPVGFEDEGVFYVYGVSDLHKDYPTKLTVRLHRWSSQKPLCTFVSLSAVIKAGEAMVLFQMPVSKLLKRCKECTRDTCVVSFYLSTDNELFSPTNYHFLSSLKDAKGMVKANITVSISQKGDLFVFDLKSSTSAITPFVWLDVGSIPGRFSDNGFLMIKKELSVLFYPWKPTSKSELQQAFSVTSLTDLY

[2] = target: T2, Alpha-galactosidase C (Aspergillus niger) (UniProt Q9UUZ4); experiment: Percent inhibition of alpha-galactosidase of Aspergillus niger at 1000 uM
T2 sequence (whole entry): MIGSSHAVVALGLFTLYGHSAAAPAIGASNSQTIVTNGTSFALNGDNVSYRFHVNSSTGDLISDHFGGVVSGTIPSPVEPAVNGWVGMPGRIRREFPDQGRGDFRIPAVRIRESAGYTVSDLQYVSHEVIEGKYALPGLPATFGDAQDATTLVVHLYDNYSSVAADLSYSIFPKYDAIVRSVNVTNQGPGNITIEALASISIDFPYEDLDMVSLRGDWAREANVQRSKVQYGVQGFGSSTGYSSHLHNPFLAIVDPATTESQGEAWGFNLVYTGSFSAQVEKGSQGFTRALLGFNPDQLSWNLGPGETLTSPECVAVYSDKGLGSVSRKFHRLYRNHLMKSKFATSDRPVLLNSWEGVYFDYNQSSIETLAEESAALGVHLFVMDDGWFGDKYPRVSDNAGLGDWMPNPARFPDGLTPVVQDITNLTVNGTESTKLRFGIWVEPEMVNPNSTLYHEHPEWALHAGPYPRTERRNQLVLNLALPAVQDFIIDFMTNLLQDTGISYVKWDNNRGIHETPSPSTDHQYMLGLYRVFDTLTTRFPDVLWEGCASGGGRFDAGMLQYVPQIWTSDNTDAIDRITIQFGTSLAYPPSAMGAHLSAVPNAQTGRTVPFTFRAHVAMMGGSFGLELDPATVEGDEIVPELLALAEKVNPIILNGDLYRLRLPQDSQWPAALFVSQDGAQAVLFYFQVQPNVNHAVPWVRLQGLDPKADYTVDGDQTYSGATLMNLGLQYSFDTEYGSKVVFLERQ

[3] = target: Maltase-glucoamylase (Homo sapiens) (UniProt O43451); conditions: 1000 uM
[4] = target: T3, Tissue alpha-L-fucosidase (Bos taurus) (UniProt Q2KIM0); conditions: 1000 uM
T3 sequence (whole entry): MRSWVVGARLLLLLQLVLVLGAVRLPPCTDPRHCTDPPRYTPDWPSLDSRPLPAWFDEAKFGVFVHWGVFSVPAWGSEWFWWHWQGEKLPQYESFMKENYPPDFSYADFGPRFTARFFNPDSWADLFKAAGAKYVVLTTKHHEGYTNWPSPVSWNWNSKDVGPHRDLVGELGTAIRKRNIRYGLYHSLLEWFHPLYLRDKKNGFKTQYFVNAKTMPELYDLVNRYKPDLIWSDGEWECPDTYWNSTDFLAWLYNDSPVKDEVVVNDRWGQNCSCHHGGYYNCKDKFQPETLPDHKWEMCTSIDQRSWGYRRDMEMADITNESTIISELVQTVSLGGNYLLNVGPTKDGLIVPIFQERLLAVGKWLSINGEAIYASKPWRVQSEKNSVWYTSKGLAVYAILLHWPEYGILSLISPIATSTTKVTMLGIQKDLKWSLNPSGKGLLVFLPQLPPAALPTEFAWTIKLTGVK

[5] = target: Sucrase-isomaltase, intestinal (Rattus norvegicus) (UniProt P23739); conditions: 1000 uM
[6] = target: T4, Beta-galactosidase (Rattus norvegicus) (UniProt D3ZUM4); experiment: Percent inhibition of beta-galactosidase of rat epididymis at 1000 uM
T4 sequence (whole entry): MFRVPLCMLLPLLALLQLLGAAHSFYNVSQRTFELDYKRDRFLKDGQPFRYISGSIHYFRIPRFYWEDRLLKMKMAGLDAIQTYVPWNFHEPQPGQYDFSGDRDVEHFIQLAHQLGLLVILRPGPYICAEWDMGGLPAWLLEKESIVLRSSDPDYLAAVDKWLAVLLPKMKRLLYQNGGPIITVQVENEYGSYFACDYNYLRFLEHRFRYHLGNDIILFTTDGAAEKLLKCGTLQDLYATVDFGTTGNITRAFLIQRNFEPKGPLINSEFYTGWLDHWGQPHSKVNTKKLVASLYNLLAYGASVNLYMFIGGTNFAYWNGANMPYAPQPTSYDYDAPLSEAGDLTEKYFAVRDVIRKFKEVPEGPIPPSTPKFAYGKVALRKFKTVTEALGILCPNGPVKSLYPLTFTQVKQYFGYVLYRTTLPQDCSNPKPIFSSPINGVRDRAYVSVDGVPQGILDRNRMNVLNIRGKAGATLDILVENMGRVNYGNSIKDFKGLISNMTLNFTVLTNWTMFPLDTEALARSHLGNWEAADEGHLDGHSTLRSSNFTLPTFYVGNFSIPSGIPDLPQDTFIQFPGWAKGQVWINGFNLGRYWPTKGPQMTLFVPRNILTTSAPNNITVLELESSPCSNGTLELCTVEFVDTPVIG

Measured: inhibition

Maltase-glucoamylase (Homo sapiens), sequence (O43451 whole entry, looked up): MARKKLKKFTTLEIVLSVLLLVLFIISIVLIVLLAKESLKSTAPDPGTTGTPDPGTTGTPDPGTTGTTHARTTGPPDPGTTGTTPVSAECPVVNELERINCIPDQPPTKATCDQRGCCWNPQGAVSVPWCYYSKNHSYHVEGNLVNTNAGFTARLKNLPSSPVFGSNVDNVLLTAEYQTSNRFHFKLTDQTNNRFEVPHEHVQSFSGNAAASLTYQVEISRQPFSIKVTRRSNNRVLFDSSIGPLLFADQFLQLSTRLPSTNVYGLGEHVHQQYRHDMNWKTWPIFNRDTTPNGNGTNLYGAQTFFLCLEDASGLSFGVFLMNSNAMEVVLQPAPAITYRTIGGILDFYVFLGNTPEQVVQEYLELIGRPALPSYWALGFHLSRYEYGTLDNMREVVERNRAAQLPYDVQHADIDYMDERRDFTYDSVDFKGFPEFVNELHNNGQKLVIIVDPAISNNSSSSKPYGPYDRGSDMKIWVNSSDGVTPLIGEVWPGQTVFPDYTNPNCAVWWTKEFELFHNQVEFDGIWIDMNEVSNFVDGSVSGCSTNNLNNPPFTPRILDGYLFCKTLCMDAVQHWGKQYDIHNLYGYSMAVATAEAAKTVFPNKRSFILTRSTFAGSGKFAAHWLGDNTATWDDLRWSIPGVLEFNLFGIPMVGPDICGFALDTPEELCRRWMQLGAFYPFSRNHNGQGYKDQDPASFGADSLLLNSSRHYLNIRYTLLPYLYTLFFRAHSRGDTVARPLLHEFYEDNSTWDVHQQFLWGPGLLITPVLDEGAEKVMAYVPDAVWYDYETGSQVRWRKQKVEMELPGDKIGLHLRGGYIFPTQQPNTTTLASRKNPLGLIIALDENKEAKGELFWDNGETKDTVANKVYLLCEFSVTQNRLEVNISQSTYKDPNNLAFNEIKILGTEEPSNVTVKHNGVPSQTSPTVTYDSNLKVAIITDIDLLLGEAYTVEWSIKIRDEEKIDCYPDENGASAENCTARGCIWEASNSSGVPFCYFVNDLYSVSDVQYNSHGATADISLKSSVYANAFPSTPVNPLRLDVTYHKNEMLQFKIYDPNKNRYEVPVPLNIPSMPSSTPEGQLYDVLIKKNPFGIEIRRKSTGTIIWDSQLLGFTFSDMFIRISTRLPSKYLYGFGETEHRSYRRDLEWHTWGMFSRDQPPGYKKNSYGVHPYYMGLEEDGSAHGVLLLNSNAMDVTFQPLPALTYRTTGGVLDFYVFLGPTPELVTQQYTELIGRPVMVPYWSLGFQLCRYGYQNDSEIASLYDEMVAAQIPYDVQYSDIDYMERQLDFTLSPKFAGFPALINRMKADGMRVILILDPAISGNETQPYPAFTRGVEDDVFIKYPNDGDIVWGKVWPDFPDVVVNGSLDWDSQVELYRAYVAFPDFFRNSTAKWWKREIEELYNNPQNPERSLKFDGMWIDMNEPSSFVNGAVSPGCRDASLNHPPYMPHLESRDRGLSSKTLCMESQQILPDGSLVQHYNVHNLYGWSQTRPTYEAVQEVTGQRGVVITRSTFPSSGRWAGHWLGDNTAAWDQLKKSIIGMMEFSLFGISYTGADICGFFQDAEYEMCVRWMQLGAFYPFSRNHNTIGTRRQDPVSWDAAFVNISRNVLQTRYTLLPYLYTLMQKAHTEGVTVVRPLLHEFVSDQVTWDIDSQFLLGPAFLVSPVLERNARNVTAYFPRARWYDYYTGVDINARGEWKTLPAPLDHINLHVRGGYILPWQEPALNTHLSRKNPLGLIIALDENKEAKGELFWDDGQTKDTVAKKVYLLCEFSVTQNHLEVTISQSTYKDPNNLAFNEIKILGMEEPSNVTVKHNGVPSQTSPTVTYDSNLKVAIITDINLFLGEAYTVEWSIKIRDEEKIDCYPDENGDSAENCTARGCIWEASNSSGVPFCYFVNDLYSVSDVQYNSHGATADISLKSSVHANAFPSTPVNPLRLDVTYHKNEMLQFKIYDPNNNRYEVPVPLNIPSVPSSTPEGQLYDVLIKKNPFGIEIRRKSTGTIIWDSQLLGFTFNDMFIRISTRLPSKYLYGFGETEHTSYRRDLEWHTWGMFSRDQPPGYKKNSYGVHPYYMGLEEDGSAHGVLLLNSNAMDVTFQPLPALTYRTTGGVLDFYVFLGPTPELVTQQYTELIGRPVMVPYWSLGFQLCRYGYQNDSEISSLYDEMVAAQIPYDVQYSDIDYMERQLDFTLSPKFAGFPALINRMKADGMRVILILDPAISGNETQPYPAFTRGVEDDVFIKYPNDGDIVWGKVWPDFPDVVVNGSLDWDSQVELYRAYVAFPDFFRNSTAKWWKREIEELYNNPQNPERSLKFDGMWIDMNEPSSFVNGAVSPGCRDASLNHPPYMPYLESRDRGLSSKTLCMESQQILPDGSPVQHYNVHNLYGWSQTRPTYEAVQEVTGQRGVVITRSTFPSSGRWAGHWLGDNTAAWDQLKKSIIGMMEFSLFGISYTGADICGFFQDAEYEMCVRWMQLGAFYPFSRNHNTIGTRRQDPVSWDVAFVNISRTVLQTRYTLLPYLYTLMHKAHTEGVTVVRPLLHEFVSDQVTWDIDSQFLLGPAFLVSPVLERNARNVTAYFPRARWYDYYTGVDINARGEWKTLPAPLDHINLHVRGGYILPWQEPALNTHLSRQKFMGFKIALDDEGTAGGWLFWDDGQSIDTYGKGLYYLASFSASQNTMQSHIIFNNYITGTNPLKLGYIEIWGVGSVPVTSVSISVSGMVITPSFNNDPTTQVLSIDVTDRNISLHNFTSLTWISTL
Sucrase-isomaltase, intestinal (Rattus norvegicus), sequence (P23739 1-1013 limits assumed): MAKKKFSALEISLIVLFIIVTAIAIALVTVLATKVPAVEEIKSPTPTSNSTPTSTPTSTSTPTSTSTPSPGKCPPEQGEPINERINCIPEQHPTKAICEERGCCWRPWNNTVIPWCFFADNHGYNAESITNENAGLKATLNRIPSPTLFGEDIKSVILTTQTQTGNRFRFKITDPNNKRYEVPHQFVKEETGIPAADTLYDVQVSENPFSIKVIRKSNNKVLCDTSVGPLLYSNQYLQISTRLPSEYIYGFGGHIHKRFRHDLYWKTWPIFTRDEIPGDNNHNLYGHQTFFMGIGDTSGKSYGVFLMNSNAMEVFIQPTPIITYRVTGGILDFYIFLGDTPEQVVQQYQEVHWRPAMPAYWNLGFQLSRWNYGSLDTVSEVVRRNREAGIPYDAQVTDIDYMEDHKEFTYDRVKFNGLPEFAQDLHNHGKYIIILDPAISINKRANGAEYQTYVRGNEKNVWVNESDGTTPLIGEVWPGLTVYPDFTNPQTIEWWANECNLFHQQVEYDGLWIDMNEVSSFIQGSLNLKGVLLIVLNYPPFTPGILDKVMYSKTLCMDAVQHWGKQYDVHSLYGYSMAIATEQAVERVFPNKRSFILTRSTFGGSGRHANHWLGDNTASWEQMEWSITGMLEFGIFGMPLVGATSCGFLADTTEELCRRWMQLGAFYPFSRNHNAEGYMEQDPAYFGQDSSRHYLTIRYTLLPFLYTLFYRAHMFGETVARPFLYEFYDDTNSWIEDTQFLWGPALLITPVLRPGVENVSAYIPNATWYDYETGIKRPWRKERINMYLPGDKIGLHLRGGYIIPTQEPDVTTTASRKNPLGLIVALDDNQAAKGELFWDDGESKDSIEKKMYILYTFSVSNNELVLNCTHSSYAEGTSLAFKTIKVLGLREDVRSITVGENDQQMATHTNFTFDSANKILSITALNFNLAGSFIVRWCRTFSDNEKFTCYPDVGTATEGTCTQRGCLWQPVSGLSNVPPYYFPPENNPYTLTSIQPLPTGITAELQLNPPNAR
Sucrase-isomaltase, intestinal (Rattus norvegicus), sequence (P23739 1014-1841 limits assumed): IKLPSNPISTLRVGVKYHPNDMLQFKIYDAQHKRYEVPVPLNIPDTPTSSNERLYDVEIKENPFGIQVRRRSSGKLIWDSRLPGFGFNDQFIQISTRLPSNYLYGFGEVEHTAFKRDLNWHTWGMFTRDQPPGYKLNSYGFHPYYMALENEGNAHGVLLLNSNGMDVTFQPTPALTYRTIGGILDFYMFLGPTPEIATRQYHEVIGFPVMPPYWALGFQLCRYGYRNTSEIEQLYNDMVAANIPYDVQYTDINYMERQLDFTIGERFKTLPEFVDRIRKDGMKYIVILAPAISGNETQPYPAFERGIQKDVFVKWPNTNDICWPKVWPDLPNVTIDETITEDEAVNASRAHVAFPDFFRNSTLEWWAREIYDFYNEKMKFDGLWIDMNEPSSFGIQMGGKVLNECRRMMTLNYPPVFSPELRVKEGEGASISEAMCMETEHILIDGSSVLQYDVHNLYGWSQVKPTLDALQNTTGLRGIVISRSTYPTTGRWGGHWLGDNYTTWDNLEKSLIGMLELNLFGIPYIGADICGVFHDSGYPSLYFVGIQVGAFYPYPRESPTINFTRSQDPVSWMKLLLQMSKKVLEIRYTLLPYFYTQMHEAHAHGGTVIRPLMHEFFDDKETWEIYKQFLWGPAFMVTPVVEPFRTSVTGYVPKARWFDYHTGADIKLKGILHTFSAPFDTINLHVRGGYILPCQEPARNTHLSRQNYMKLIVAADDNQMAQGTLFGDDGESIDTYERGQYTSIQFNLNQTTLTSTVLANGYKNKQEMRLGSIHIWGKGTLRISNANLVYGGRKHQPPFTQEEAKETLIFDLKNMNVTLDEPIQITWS

OC[C@@H]1NC[C@@H](O)[C@H](O)[C@H]1O
< 50%: [1] | [2] | [3] | [4]

OC[C@H]1NC[C@H](O)[C@@H](O)[C@H]1O
< 50%: [1] | [3] | [5] | [4]

OC[C@@H]1NC[C@H](O)[C@@H](O)[C@@H]1O
< 50%: [1] | [6] | [2] | [3] | [5] | [4]

OC[C@@H]1NC[C@H](O)[C@H](O)[C@H]1O
< 50%: [1] | [6] | [2] | [3] | [5] | [4]

OC[C@H]1NC[C@H](O)[C@H](O)[C@@H]1O
< 50%: [1] | [6] | [2] | [3] | [5] | [4]

OC[C@H]1NC[C@@H](O)[C@@H](O)[C@@H]1O [DEOXYMANNOJIRIMYCIN]
< 50%: [1] | [6] | [2] | [3]

OC[C@@H]1NC[C@@H](O)[C@@H](O)[C@@H]1O
< 50%: [1] | [6] | [2] | [3] | [5]

OC[C@@H]1NC[C@@H](O)[C@@H](O)[C@H]1O
< 50%: [1] | [6] | [2] | [3] | [5] | [4]

OC[C@H]1NC[C@@H](O)[C@H](O)[C@H]1O
< 50%: [1] | [6] | [2] | [3] | [5] | [4]

OC[C@H]1NC[C@H](O)[C@@H](O)[C@@H]1O [DUVOGLUSTAT]
< 50%: [2]

OC[C@@H]1NC[C@@H](O)[C@H](O)[C@@H]1O
< 50%: [1] | [2] | [3] | [5]

OC[C@H]1NC[C@H](O)[C@H](O)[C@H]1O
< 50%: [1] | [6] | [2] | [3] | [5] | [4]
